Experimental data as given in patent publication US7375130B2, “Antidiabetic compounds comprising benzofuran and benzothiophene derivatives” (Merck Patent Gesellschaft mit beschrankter Haftung, priority 2003, dated 2008).

How the values were obtained:
INS1 = assay: Insulin secretion test (SEC INS1) according to Endocrinology, 1992 vol. 130 (1) pp. 167-178; assay type: cell-based; conditions: Rattus norvegicus, compounds tested at 10^-5 M, read-out: SEC INS1 (insulin-secreting activity)
Description: Insulin Secretion Test According to the Method Described in Endocrinology, 1992 vol. 130 (1) pp. 167-178
The compounds according to the invention were tested at 10^−5 M.
The insulin-secreting activities are collated in Table B.

[1] = tested on: isolated islets of Langerhans; assay: Insulin secretion in isolated rat islets of Langerhans in static incubation, as a function of the glucose concentration; assay type: cell-based; conditions: 90 minutes incubation, RIA, relative to glucose alone; for Insulin secretion stimulation factor, Product + G 2.8 mM: glucose 2.8 mM; for Insulin secretion stimulation factor, Product + G 8 mM: glucose 8 mM
Description: Study of the Activity on Isolated Rat Islets
Effect of the chemical compounds on insulin secretion as a function of the glucose concentration, in vitro, in isolated islets of Langerhans in static incubation (Table C):
The islets of Langerhans obtained by digestion of exocrine pancreatic tissue with collagenase, and then purified on Ficoll gradient, are incubated for 90 minutes in the presence of two concentrations of glucose, (2.8 mM or 8 mM), in the presence or absence of the chemical compound. The insulin secretion is assayed by RIA in the incubation medium.
The potential of the various chemical compounds to stimulate insulin secretion is estimated by calculating the stimulation factor*.
A compound stimulates the secretion of insulin if this factor is greater than or equal to 130% for a given dose of glucose.
where: • G=secretion of insulin (pmol/min. islet) in the presence of glucose alone • G+product=secretion of insulin (pmol/min. islet) in the presence of the same concentration of glucose and of the test chemical compound.

Row | Structure (SMILES) | activity at 10 µM (INS1) [%] | further results
1 | CCOC(=O)c1sc2ccccc2c1OCC(=O)c1ccccc1OC [Product 3] | 320 | –
2 | CCOC(=O)c1sc2ccccc2c1OCC(=O)c1ccc(F)cc1 [Product 7] | 257 | –
3 | CCOC(=O)c1sc2ccccc2c1OCC(=O)c1cccc(OC)c1 [Product 8] | 252 | –
4 | CCOC(=O)c1sc2ccccc2c1OC(C)C(=O)c1ccccc1 (stereo not drawn) [Product 10] | 225 | –
5 | CCOC(=O)c1sc2ccccc2c1OCC(=O)c1ccc(OC)cc1OC [Product 11] | 258 | –
6 | CCOC(=O)c1sc2ccccc2c1OCC(=O)C(C)(C)C [Product 12] | 230 | Insulin secretion stimulation factor, Product + G 2.8 mM ([1]; dose 10^-5 M): 93%; Insulin secretion stimulation factor, Product + G 8 mM ([1]; dose 10^-5 M): 186%; Insulin secretion stimulation factor, Product + G 2.8 mM ([1]; dose 10^-6 M): 90%; Insulin secretion stimulation factor, Product + G 8 mM ([1]; dose 10^-6 M): 189%
7 | CCOC(=O)c1sc2ccccc2c1OCC(=O)c1ccc2ccccc2c1 [Product 13] | 240 | –
8 | CCOC(=O)c1sc2ccccc2c1OCc1cccc(C#N)c1 [Product 29] | 249 | –
